# Reference: PubChem BioAssay (NCI)
# “And” between values parts separate entries of the source, which are not always exact repeats. Equal values may be shown once.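 How tested: cells in 96-well plates exposed to compound for 48 hours at five concentrations. Abbreviation: GI50, concentration required for 50% inhibition of growth. The concentration for full growth arrest is given as TGI.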
# What was measured:
# Test in all cases: inhibition of tumour cell growth, NCI panel, 48 h
# [1] = system: SK-MEL-2 melanoma
# [2] = system: HL-60(TB) leukemia
# [3] = system: A498 renal
# [4] = system: SF-268 CNS
# [5] = system: SN12C renal
# [6] = system: NCI-H460 lung
# [7] = system: CAKI-1 renal
# [8] = system: SW-620 colon
# [9] = system: NCI-H522 lung
# [10] = system: CCRF-CEM leukemia
Structure (SMILES),GI50 [1] [µM],TGI [1] [µM],GI50 [2] [µM],TGI [2] [µM],GI50 [3] [µM],TGI [3] [µM],GI50 [4] [µM],TGI [4] [µM],GI50 [5] [µM],TGI [5] [µM],GI50 [6] [µM],TGI [6] [µM],GI50 [7] [µM],TGI [7] [µM],GI50 [8] [µM],TGI [8] [µM],GI50 [9] [µM],TGI [9] [µM],GI50 [10],TGI [10] [µM]
COc1cc(C)c(N(C)C(=O)CN(C)C)cc1Nc1nc(Nc2cccc(F)c2C(N)=O)c2cc[nH]c2n1,> 25,> 25,3.2,> 25,> 13.9,> 25,> 25,> 25,> 25,> 25,> 23.2,> 25,> 23.9,> 25,> 22.4,> 25,> 25,> 25,> 19.3 µM,> 25
CCCCCn1ncc(-c2c(O)c(O)cc3c(O)c(-c4c(C)cc5c(-c6cnn(CCCCC)n6)c(O)c(O)cc5c4O)c(C)cc23)n1,0.147,6.81,0.124,3.57,3.99,8.25,0.147,4.27,0.124,5.75,0.0258,0.465,0.156,4.24,0.117,6.26,0.0984,1.07,0.0927 µM,6.3
CN([N-]C(=O)CC(=O)[N-]N(C)C(=S)c1ccccc1)C(=S)c1ccccc1.[Cu+2],0.113,0.263,0.0663,,0.0346,0.146,0.037,0.176,0.124,0.253,0.0227,0.14,0.0459,0.159,0.0206,0.108,< 0.013,0.0281,< 0.01 µM,0.121
COc1cc2c(c(OC)c1OC)C(=O)c1c-2n(CCCN)c(=O)c2cc([N+](=O)[O-])ccc12,5.45,11.6,4.5,10.9,1.41,2.99,0.364,1.95,5.11,13.6,0.562,,0.535,2.24,0.31,3.3,5.79,14,0.285 µM,0.834
O=C(CN1C(=O)c2ccccc2C1=O)OC1C=CCCC1 (stereo unspecified),,> 100,,> 100,,> 100,,> 100,,> 100,,> 100,,> 100,,> 100,,> 100,,> 100
CN1CCN(c2ccc3nc(-c4ccc5nc(-c6ccc(C(F)(F)F)cc6)[nH]c5c4)[nH]c3c2)CC1,1.87,3.5,1.47,3.45,10.7,29.6,1.97,3.93,1.9,3.96,1.9,3.55,2.97,15.7,1.47,3.09,1.47,3.39,1.56 µM,3.68
COc1ccc(S(=O)(=O)N2CCCCC2)cc1NC(=O)c1[nH]c(C)c2c1CCCCC2=O,2.4,31,0.444,6.86,1.08,3.98,7.91,> 100,3.16,> 100,4.01,> 100,0.419,56.7,8.04,> 100,0.374,7.73,3.14 µM,> 100
CC(C)NCCCNC1=C(Cl)C(=O)c2ccccc2C1=O,13.5,30,2.2,5.03,12.2,25.1,4.42,15.1,1.89,3.93,3.96,16.4,5.83,20.9,1.74,3.37,8.69,21.8,3.56 µM,17.6
CC(C)(C)c1ccc(NC(=O)c2cc(=O)c3ccccc3[nH]2)c(C(C)(C)C)c1O,12.6,26.4,4.27,17.2,4.33,19.7,7.48,22.4,9.81,24.4,3.72,13.9,5.74,19.2,8.24,27.1,8.04,20.8,2.33 µM,8.25
c1ccc2c(c1)[Se]c1ccccc1[Se]2,,> 100,,> 100,,> 100,,> 100,,> 100,,> 100,,> 100,,> 100,,> 100,,> 100
O=c1c2cc(-c3ccccc3)sc2nc2sc(-c3ccccc3)nn12,,> 100,,> 100,,> 100,,> 100,,> 100,,> 100,,> 100,,> 100,,> 100,,> 100
Cc1occc1C(=S)Nc1ccc(Cl)c(C(=O)OCC2CC2)c1,,> 100,,75.3,,> 100,,> 100,,> 100,,> 100,,> 100,,> 100,,> 100,,91.5
Cc1ccc2nc(NC(=O)CSC(=S)N3CCN(Cc4ccccc4)CC3)sc2c1,> 100,> 100,> 83.6,> 100,> 100,> 100,> 100,> 100,> 100,> 100,> 100,> 100,> 85.8,> 100,> 100,> 100,> 100,> 100,> 100 µM,> 100
Cc1cc(Cl)ccc1N1C(=O)C(=O)C(c2nc3ccccc3s2)/C(=N\NC(=O)c2ccccc2O)C1=O (stereo unspecified),,> 100,,> 100,,> 100,,> 100,,> 100,,> 100,,> 100,,> 100,,> 100,,> 100
CC(C)(C)OC(=O)N(CCCn1c2c(c3ccccc3c1=O)C(=O)c1ccccc1-2)CCN(CCCn1c2c(c3ccccc3c1=O)C(=O)c1ccccc1-2)C(=O)OC(C)(C)C,> 50,> 50,> 50,> 50,> 50,> 50,23.8,> 50,39.9,> 50,27.3,> 50,37.9,> 50,49.1,> 50,21.3,> 50,4.93 µM,> 50
C=C(C)[C@@H]1CC[C@]2(C)[C@H](CC=C3[C@@H]4CC(C)(C)CC[C@]4(C(=O)OC)CC[C@]32C)[C@@]1(C)CC/C(N)=N/O,1.78,3.95,2.47,7.62,2.05,4.48,1.96,4.76,1.66,3.2,1.89,4.03,2.4,15.1,1.88,4.32,1.58,4.12,2.19 µM,6.2
CC(=O)OC1CC(C)c2c1ncnc2N1CCN(C(=O)OC(C)(C)C)CC1 (stereo unspecified),35.5,93.1,25.9,83.6,37.8,> 100,67.2,> 100,79.4,> 100,34.7,> 100,63.8,> 100,42.9,> 100,22.6,47.2,32.9 µM,> 100
CC[O+]=c1cccc2ssnc1-2,,> 100,,> 100,,> 100,,> 100,,> 100,,> 100,,> 100,,> 100,,82.6,,> 100
Cc1ccc(S(=O)(=O)NC(C)C(=O)O)cc1 (stereo unspecified),,> 100,,> 100,,> 100,,> 100,,> 100,,> 100,,> 100,,> 100,,> 100,47.2 µM and > 100 µM,> 100
C=CCCC12CCCC(=O)C1Sc1ccc3ccccc3c12 (stereo unspecified),,32.8,,44.6,,26.1,,> 100,,54.4,,,,26.4,,58.6,,35,,53.8
O=C(/C=C/c1ccccc1)c1ccc(O)c(CN2CCN(c3cc4c(cc3F)c(=O)c(C(=O)O)cn4C3CC3)CC2)c1,3.3,> 100,0.77,> 100,0.941,4.93,2.53,> 100,,,3.85,> 100,2.42,> 100,2.28,> 100,2.42,> 100,0.598 µM,> 100
